Consider 25 molecules from ChEMBL document CHEMBL3217437, “The p53-MDM2/MDMX axis - A chemotype perspective” (Medchemcomm, 2011).

The target in assay [1] is T1, Tumour suppressor p53/oncoprotein Mdm2 (Homo sapiens, UniProt P04637+Q00987). Nature of the assay: Inhibition of p53 interaction to MDM2 (unknown origin). It counts as protein assay.
Target sequence in this assay (P04637 whole entry): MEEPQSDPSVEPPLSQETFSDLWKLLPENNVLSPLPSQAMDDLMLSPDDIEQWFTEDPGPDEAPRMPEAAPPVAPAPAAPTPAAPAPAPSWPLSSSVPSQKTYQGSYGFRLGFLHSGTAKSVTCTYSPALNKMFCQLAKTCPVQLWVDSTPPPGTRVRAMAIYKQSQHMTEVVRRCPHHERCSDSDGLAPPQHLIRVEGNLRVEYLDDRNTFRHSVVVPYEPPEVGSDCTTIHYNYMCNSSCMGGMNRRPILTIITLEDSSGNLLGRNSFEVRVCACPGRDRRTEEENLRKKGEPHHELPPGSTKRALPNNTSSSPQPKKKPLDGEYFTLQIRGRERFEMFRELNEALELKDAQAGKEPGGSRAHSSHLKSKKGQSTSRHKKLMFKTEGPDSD
Target sequence in this assay (Q00987 whole entry): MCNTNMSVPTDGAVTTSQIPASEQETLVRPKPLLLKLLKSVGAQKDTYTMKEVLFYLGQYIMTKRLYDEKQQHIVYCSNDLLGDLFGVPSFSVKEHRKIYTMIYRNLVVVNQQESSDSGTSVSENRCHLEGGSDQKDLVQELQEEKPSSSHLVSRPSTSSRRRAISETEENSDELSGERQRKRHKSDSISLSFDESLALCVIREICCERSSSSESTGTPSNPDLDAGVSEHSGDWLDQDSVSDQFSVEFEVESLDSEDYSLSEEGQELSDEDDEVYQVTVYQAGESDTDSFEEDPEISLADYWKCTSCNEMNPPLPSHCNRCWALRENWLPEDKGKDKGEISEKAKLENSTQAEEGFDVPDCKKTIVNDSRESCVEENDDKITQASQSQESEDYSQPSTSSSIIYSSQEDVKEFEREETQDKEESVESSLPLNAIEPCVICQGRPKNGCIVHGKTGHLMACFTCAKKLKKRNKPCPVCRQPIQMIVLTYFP
Assay [2] concerns the target T1, Tumour suppressor p53/oncoprotein Mdm2. Nature of the assay: Inhibition of p53 interaction to MDM2 (unknown origin) by HTS assay. It counts as protein assay.
Target sequence in this assay (P04637 whole entry): as the sequence (P04637 whole entry) above
Target sequence in this assay (Q00987 whole entry): as the sequence (Q00987 whole entry) above
For assay [3] the target is unchanged. Put plainly: Inhibition of p53 interaction to MDM2 (unknown origin) by HTRF assay in presence of 0.02% bovine serum albumin. It counts as protein assay.
Target sequence in this assay (P04637 whole entry): as the sequence (P04637 whole entry) above
Target sequence in this assay (Q00987 whole entry): as the sequence (Q00987 whole entry) above
Assay [4] shares this target. Put plainly: Inhibition of p53 interaction to GST-tagged MDM2 (unknown origin). It counts as protein assay.
Target sequence in this assay (P04637 whole entry): as the sequence (P04637 whole entry) above
Target sequence in this assay (Q00987 whole entry): as the sequence (Q00987 whole entry) above
For assay [5] the target is unchanged. Nature of the assay: Inhibition of p53 interaction to MDM2 (unknown origin) by fluorescence polarization assay. Format: protein assay. In general terms: Fluorescence polarisation rises when a labelled molecule tumbles more slowly, as on binding a larger partner.
Target sequence in this assay (P04637 whole entry): as the sequence (P04637 whole entry) above
Target sequence in this assay (Q00987 whole entry): as the sequence (Q00987 whole entry) above
In assay [6] the test system is NCI-H460. Put plainly: Antiproliferative activity against human NCI-H460 cells. It counts as functional, cell-based.
In assay [7] the target is T1, Tumour suppressor p53/oncoprotein Mdm2. Nature of the assay: Inhibition of His-tagged p53 interaction to GST-tagged MDM2 (unknown origin). It counts as protein assay.
Target sequence in this assay (P04637 whole entry): as the sequence (P04637 whole entry) above
Target sequence in this assay (Q00987 whole entry): as the sequence (Q00987 whole entry) above
Assay [8] is described as follows: Antiproliferative activity against human DLD1 cells. It counts as functional, cell-based. The conditions noted are these: DLD-1.
The subject of assay [9] is A2780. Put plainly: Antiproliferative activity against human A2780 cells. It counts as functional, cell-based.
The target in assay [10] is Tumour suppressor protein p53/Mdm4 (Homo sapiens, UniProt O15151). Nature of the assay: Inhibition of p53 interaction to MDMX (unknown origin) by fluorescence polarization assay. It counts as protein assay.
Assay [11] has as its target T1, Tumour suppressor p53/oncoprotein Mdm2. Nature of the assay: Inhibition of p53 interaction to MDM2 (unknown origin) at 1.4 uM by HTRF assay. Format: protein assay. On the technique in general: Time-resolved FRET reads energy transfer from a long-lived donor to a nearby acceptor.
Target sequence in this assay (P04637 whole entry, looked up): as the sequence (P04637 whole entry) above
Target sequence in this assay (Q00987 whole entry, looked up): as the sequence (Q00987 whole entry) above

Broadly, the IC50 is the midpoint of a concentration-inhibition curve. What is called Ki is the dissociation constant of the complex between target and ligand, obtained from inhibition or displacement. What is called inhibition is how much of the control response was suppressed. High values mean strong suppression, low ones little suppression.

Tumour suppressor protein p53/Mdm4, sequence (P04637 whole entry): as the sequence (P04637 whole entry) above
Tumour suppressor protein p53/Mdm4, sequence (O15151 whole entry): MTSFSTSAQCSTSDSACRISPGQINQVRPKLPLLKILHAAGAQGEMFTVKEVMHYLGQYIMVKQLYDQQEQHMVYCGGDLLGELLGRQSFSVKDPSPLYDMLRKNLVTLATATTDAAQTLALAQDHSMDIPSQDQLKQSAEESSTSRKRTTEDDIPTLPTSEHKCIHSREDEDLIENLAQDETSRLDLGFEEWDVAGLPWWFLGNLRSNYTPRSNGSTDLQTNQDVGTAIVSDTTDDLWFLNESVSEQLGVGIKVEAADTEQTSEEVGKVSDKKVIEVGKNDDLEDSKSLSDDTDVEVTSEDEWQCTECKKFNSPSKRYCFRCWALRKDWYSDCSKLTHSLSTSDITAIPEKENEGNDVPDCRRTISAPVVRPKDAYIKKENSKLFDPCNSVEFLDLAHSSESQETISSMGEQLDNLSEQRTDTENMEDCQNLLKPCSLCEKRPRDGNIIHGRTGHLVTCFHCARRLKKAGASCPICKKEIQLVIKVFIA

`C=C(CC)[C@H]1N2CC(=O)N(CCCN(C)C)N=C2C[C@@H](c2cccc(Cl)c2)[C@]12C(=O)Nc1cc(Cl)ccc12` gave an IC50 in assay [1] of 100 nM. In [2], `COC(=O)[C@]1(c2ccc(Cl)cc2)N=CN(CC2CC2)[C@H]1c1ccc(Cl)cc1` came in with a Ki of 3000 nM. For the molecule `CC(C)(C)C[C@@H]1N[C@@H](C(=O)NCCCCO)[C@@H](c2cccc(Cl)c2)[C@@]1(C#N)c1ccc(Cl)cc1`, in [3], the 50% inhibitory concentration (IC50) amounted to 309 nM. Consider `Cc1ccc(CN2C(=O)c3ccccc3C2(O[C@H]2C=C[C@@H](O)C2)c2ccc(Cl)cc2)cc1` (some centres not stated), for which, in assay [1], the IC50 was determined as 1400 nM.

Molecule `COc1cccc(C2(Cc3cccc(Cl)c3)C(=O)Nc3cc(Cl)ccc32)c1` (configuration not stated) had an IC50 in assay [1] of 460 nM. As to `CC(C)(C)C[C@@H]1N[C@@H](C(=O)NCC[C@H](O)CO)[C@@H](c2cc(F)cc(Cl)c2)[C@@]1(C#N)c1ccc(Cl)cc1F`, in assay [3], the IC50 came out at 165 nM. As to `CC(=O)N1CCC(Oc2ccc(I)cc2[C@@H]2NC(=O)C[C@H](c3cccc(Cl)c3)[C@@]23C(=O)Nc2cc(Cl)ccc23)CC1`, 34 nM corresponded to half-maximal inhibition in assay [4] (IC50). In [5], `CC(C)Cc1cc(CCC(=O)O)ccc1-c1ccc(-c2ccc(OCC(=O)O)c(Cc3ccccc3)c2)c(Cc2ccccc2)c1` showed a Ki of 970 nM.

The molecule `CCOC(=O)[C@@]1(c2ccc(Cl)cc2)N=C(c2ccc(OC)cc2OC(C)C)N(C(=O)N2CCN(C(C)=O)CC2)[C@@H]1c1ccc(Cl)cc1` gave a half-maximal inhibitory concentration (IC50) in assay [1] of 70 nM.

As for `CC(C)C1=C(C(=O)N2CCC[C@H]2C(=O)N(C)C)SC2=N[C@@](C)(c3ccc(Cl)nc3)[C@@H](c3ccc(Cl)cc3)N21`, the IC50 worked out at 1380 nM in assay [6], 14 nM in [7] and 40700 nM in assay [8].

In the case of `Cc1ccc(F)cc1[C@H]1NC(=O)C=C(c2cccc(Cl)c2)[C@]12C(=O)Nc1cc(Cl)ccc12`, the IC50 in [3] is 66 nM. In assay [9], `OC1CCc2c(Nc3ccc4c(c3)OCCN4CCc3c[nH]c4ccccc34)ccnc21` (configuration not stated) showed an IC50 of 427 nM. On to `Cc1ccc(F)cc1[C@@H]1NC(=O)C[C@H](c2cc(Cl)cnc2CC(C)(C)C(=O)O)[C@@]12C(=O)Nc1cc(Cl)ccc12`, for which the IC50 in assay [3] stood at 145 nM. In assay [1], `Cc1ccc(F)cc1[C@@H]1NC(=O)C[C@H](c2ccccc2OC(C)(C)C(=O)N2CCC(F)(F)CC2)[C@@]12C(=O)Nc1cc(Cl)ccc12` displayed an IC50 of 54 nM. Molecule `CC(C)(C)C[C@H]1N[C@@H](C(=O)NCCN2CCOCC2)[C@H](c2cccc(Cl)c2F)[C@@]12C(=O)Nc1cc(Cl)ccc12` showed a Ki in assay [10] of 55000 nM.

Consider `O=C1C[C@H](c2cccc(Cl)c2)[C@@]2(C(=O)Nc3cc(Cl)ccc32)[C@H](c2cccc(Cl)c2)C1`, for which, in [11], the inhibition came out at 94.4%. In the case of `CC(C)(C)c1ncc(C2=N[C@@](C)(c3ccc(Cl)cc3)[C@@](C)(c3ccc(Cl)cc3)N2C(=O)N2CCN(CCOCCO)CC2)cn1`, 31 nM corresponded to half-maximal inhibition in assay [1] (IC50). Same read-out and setting: next, `Cc1cccc([C@H]2N(CC(=O)O)C(=O)C[C@@H](c3cccc(Cl)c3)[C@]23C(=O)Nc2cc(Cl)ccc23)c1` (racemic): 370 nM. Still for that read-out and setting: under `COC(=O)c1cccc(S(=O)(=O)N2c3ccc(C(=O)N4CCN(C)CC4)c(=O)n3[C@@H](c3ccc(Cl)cc3)[C@H]2c2ccc(Cl)cc2)c1` stands 460 nM; under `CCOC(=O)N1CCN(C(=O)[C@@]2(Sc3ccccc3)CC(=O)N(Cc3ccc(C#N)cc3)[C@@H]2c2c[nH]c3cc(Cl)ccc23)CC1`, 1000 nM. The same measure, in the same setting: next, `COc1cc(C(=O)N(C)[C@@H](Cc2c[nH]c3ccccc23)C(=O)N2CCN(c3ccc([N+](=O)[O-])cc3)CC2)c([N+](=O)[O-])cc1OC`: 30 nM. In [9], `Fc1cc(Nc2ccncc2)cc(F)c1NCCc1c[nH]c2ccccc12` showed an IC50 of more than 10000 nM. Turning to `COc1cccc([C@]2(Cc3cccc(Cl)c3)C(=O)Nc3cc(Cl)ccc32)c1`, half-maximal inhibition in assay [1] (IC50) required 280 nM.

Take `CC(C)C1=C(C(=O)N2C[C@H](F)C[C@H]2C(=O)N2CCNC3(CC3)C2)SC2=N[C@@](C)(c3ccc(Cl)nc3)[C@@H](c3ccc(Cl)c(F)c3)N21`: in [1], the half-maximal inhibitory concentration (IC50) amounted to 2.8 nM.

In assay [2], `Clc1ccc2c(-c3c(-c4ccc5c(c4)OCO5)ncn3CC3CC3)c[nH]c2c1` yielded an inhibitory constant (Ki) of 1000 nM. This lies in the single-digit micromolar range.
